Reference: patent US11446287B2, “Compounds and methods for EP300 or CBP modulation and indications therefor” (Opna Immuno-Oncology SA, priority 2019, dated 2022)

biological target: T1, Recombinant human CBP containing the bromodomain (CBP-BD (1043-1159)) (Homo sapiens, UniProt Q92793); assay: CBP Alphascreen binding assay; details: read-out: CREBBP (CBP) IC50
T1 construct: Recombinant human CBP bromodomain (CBP-BD (1043-1159)); made in house; host or cells: E. coli BL21-CodonPlus (DE3), modified pET vector
Procedure, shortened: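 Buffer: 50 mM HEPES pH 7.5, 50 mM NaCl, 0.01% BSA, 0.01% Triton X-100, 2 mM DTT. The signal was normalised to plate controls and fitted with a four-parameter curve to give IC50.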

T1 sequence (Q92793 1081-1197): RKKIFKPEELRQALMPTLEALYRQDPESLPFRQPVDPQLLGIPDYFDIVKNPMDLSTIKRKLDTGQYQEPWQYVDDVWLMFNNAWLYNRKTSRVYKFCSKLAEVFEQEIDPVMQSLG

SMILES | IC50 [µM]
C=C(C)c1ccccc1-n1cc(-c2ccc(C(=O)O)cc2OC(F)(F)F)c2cc(-c3c(C)noc3C)cnc21 [P-0312, 4-(5-(3,5-dimethylisoxazol-4-yl)-1-(2-(prop-1-en-2-yl)phenyl)-1H-pyrrolo[2,3-b]pyridin-3-yl)-3-(trifluoromethoxy)benzoic acid] | 0.0001 to 1
CCOc1cc(C(=O)O)cc(OCC)c1-n1cc(-c2cnn(C(F)F)c2)c2ncc(-c3c(C)noc3C)cc21 [P-0261, 4-(3-(1-(difluoromethyl)-1H-pyrazol-4-yl)-6-(3,5-dimethylisoxazol-4-yl)-1H-pyrrolo[3,2-b]pyridin-1-yl)-3,5-diethoxybenzoic acid] | 0.0001 to 1
Cc1noc(C)c1-c1cnc2c(-c3ccccc3)cn(-c3c(OCC(F)(F)F)cc(C(=O)O)cc3OCC(F)(F)F)c2c1 [P-0298, 4-(6-(3,5-dimethylisoxazol-4-yl)-3-phenyl-1H-pyrrolo[3,2-b]pyridin-1-yl)-3,5-bis(2,2,2-trifluoroethoxy)benzoic acid] | 0.0001 to 1
Cc1noc(C)c1-c1cnc2c(c1)c(-c1ccc(C(=O)O)cc1OC(F)(F)F)cn2-c1cnc(N2CCC2)nc1 [P-0281, 4-(1-(2-(azetidin-1-yl)pyrimidin-5-yl)-5-(3,5-dimethylisoxazol-4-yl)-1H-pyrrolo[2,3-b]pyridin-3-yl)-3-(trifluoromethoxy)benzoic acid] | 0.0001 to 1
CCOc1cc(C(=O)O)cc(OCC)c1-n1cc(-c2cnn(CS(C)(=O)=O)c2)c2ncc(-c3c(C)noc3C)cc21 [P-0258, 4-(6-(3,5-dimethylisoxazol-4-yl)-3-(1-((methylsulfonyl)methyl)-1H-pyrazol-4-yl)-1H-pyrrolo[3,2-b]pyridin-1-yl)-3,5-diethoxybenzoic acid] | 0.0001 to 1
Cc1nnn(C)c1-c1cnc2c(c1)c(-c1ccc(C(=O)O)cc1OC(F)(F)F)cn2CC/C=C/C1CC1 [P-0305, (E)-4-(1-(4-cyclopropylbut-3-en-1-yl)-5-(1,4-dimethyl-1H-1,2,3-triazol-5-yl)-1H-pyrrolo[2,3-b]pyridin-3-yl)-3-(trifluoromethoxy)benzoic acid] | 0.0001 to 1
COc1cc(C(=O)O)cc(C)c1-c1cn(-c2ccccc2)c2ncc(-c3c(C)noc3C)cc12 [P-0255, 4-(5-(3,5-dimethylisoxazol-4-yl)-1-phenyl-1H-pyrrolo[2,3-b]pyridin-3-yl)-3-methoxy-5-methylbenzoic acid] | 0.0001 to 1
Cc1noc(C)c1-c1cnc2c(c1)c(-c1ccc(C(N)=O)cc1)cn2C(c1ccccn1)C1CCCC1 (stereo not drawn) [P-0020, 4-(1-(cyclopentyl(pyridin-2-yl)methyl)-5-(3,5-dimethylisoxazol-4-yl)-1H-pyrrolo[2,3-b]pyridin-3-yl)benzamide] | 1 to 8
COc1ccc(-n2cc(-c3ccc(C(=O)O)cc3OC(F)(F)F)c3cc(-c4c(C)noc4C)cnc32)c(F)c1 [P-0311, 4-(5-(3,5-dimethylisoxazol-4-yl)-1-(2-fluoro-4-methoxyphenyl)-1H-pyrrolo[2,3-b]pyridin-3-yl)-3-(trifluoromethoxy)benzoic acid] | 0.0001 to 1
CCOc1cc(C(=O)O)cc(OCC)c1-n1cc(-c2cnn(CC(=O)N(C)C)c2)c2ncc(-c3c(C)noc3C)cc21 [P-0267, 4-(3-(1-(2-(dimethylamino)-2-oxoethyl)-1H-pyrazol-4-yl)-6-(3,5-dimethylisoxazol-4-yl)-1H-pyrrolo[3,2-b]pyridin-1-yl)-3,5-diethoxybenzoic acid] | 0.0001 to 1
CCCn1nc(C(=O)O)c(NCC)c1-c1cn(-c2ccc(F)cc2F)c2ncc(-c3c(C)noc3C)cc12 [P-0304, 5-(1-(2,4-difluorophenyl)-5-(3,5-dimethylisoxazol-4-yl)-1H-pyrrolo[2,3-b]pyridin-3-yl)-4-(ethylamino)-1-propyl-1H-pyrazole-3-carboxylic acid] | 0.0001 to 1
Cc1noc(C)c1-c1cnc2c(c1)c(-c1ccc(C(=O)O)cc1OC(C)C)cn2-c1ccccc1 [P-0275, 4-(5-(3,5-dimethylisoxazol-4-yl)-1-phenyl-1H-pyrrolo[2,3-b]pyridin-3-yl)-3-isopropoxybenzoic acid] | 0.0001 to 1
